The values below are quoted from earlier work in patent US6183121A, “Hepatitis C virus helicase crystals and coordinates that define helicase binding pockets” (priority 1998, dated 2001).

The target of this data set is UvrD helicase, mutation of a conserved arginine in motif IV (Escherichia coli, UniProt P03018, R284A). Conditions: mutant versus unmutated UvrD; M. C. Hall et al., J. Biol. Chem., 272 (1997).
Chain of UvrD helicase, mutation of a conserved arginine in motif IV (P03018 whole entry R284A): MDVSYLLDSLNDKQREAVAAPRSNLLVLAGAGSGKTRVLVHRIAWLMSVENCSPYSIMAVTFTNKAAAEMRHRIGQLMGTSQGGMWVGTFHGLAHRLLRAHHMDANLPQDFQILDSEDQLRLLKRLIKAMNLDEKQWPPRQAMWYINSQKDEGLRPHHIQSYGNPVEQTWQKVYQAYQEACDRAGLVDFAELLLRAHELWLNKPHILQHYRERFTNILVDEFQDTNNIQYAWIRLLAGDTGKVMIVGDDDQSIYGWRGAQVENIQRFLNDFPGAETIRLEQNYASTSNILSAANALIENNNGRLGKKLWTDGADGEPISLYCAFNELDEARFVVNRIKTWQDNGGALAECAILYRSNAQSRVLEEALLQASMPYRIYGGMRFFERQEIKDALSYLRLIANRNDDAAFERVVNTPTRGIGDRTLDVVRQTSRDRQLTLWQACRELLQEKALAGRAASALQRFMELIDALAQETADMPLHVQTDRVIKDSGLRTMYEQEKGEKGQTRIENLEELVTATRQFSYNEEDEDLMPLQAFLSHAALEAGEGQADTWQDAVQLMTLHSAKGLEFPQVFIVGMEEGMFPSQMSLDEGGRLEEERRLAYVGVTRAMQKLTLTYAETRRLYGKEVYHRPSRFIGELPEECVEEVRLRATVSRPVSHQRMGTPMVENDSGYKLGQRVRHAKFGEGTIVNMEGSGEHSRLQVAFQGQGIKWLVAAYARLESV

`Nc1ncnc2c1ncn2[C@@H]1O[C@H](COP(=O)(O)OP(=O)(O)OP(=O)(O)O)[C@@H](O)[C@H]1O` [ATP]: the “increase of the ATP Km” value is recorded as 37 fold.
